Reference: patent US4831155A (priority 1984, dated 1989)
Like-named read-outs stand apart in the source and are kept apart here.

Assays:
[1] = target: T1, acetylcholinesterase originating from "Electrophorus electricus" (Electrophorus electricus, UniProt O42275)
male Swiss mice [2] = assay: spontaneous locomotor activity in mice (two-part cage); type: in vivo
Procedure: (§1) In particular, with regard to this latter aspect, an evaluation was made of the effects of the substance on spontaneous locomotor activity, and of the antagonisms of the heptyl derivative towards the central stimulating effects of anticholinergic drugs (scopolamine). An evaluation was also made of the effects of the substance on the electrocorticographic activity and on the inhibition of cerebral acetylcholinesterase (AchE) "in vivo".
(§2) The experiments were conducted using male Swiss mice with a weight of about 30 g.
The test used for measuring the spontaneous locomotor activity was that employing a cage divided into two parts.

[3] = system: acetylcholinesterase (AchE); assay: acetylcholinesterase (AChE) inhibition in the brain and serum after i.p. administration; type: in vivo, rats; conditions: n=4; for AChE inhibition, brain (M ± SE) / AChE inhibition, serum (M ± SE): Table I, 10 min, salicylate
Procedure: The acetylcholinesterase (AchE) inhibition in the brain and serum was tested for the heptyl derivative in comparison with physostigmine. Both physostigmine and heptyl derivative were used in form of salycilate and dissolved in distilled water with carbossimethyl cellulose sodium salt at 2%.

[4] = system: cerebral acetylcholinesterase (AchE); type: in vivo, mice
[5] = acute toxicity (lethal dose) in mice; type: in vivo; conditions: mouse, in vivo, injection, determined within two hours, read-out: lethal dose 50 (LD50)
Procedure: (§3) The activity of the this product was evaluated in terms of its toxicity (lethal dose: LD) and its behavioural effects.
as §2
(§4) The acute toxic effects of the heptyl derivative were also evaluated as a comparison with the effects of physostigmine. […] Compared with physostigmine, the lethal dose 50 of the heptyl derivative is about 60 times greater, the LD50 for physostigmine being 0.6 mg/kg. The LD50 values were determined within two hours from the injection. Beyond this time, no obvious effects were observable. The LD50 values of other derivatives according to the present invention, evaluated with the same method resulted as follows: […]

[6] = target: T1, acetylcholinesterase originating from "Electrophorus electricus"; assay: biochemical
male Swiss mice [7] = assay: acute toxicity (lethal dose) in mice; type: in vivo
Procedure: as §3, §2, §4

male Swiss mice [8] = assay: antagonism towards the central stimulating effects of scopolamine; type: in vivo
Procedure: as §1, §2
At the central cholinergic antagonists exert a stimulating action on spontaneous activity, a study was carried out of the antagonism towards the stimulating effects of scopolamine (a typical anticholinergic drug which acts at the central level) by the heptyl derivative. […] These activities show the existence of antagonism towards the central effects of scopolamine, indicative of a central effect of the heptyl derivative.

[9] = system: mice implanted with parietal electrodes; assay: electrocorticographic activity; type: in vivo; conditions: 10 mg/kg, 15 minutes after administration
Procedure: as §1, §2
The […] was recorded by a Beckmann polygraph.

[10] = Table II, i.p. equiactive doses: Phys. 0.2, Hept. 1.0 mg/Kg
[11] = bimolecular rate constant, value = ki × 10^-5
[12] = first order carbamylation rate constant
[13] = first order reactivation rate constant, value = k3 × 10^2

T1 sequence (O42275 24-633): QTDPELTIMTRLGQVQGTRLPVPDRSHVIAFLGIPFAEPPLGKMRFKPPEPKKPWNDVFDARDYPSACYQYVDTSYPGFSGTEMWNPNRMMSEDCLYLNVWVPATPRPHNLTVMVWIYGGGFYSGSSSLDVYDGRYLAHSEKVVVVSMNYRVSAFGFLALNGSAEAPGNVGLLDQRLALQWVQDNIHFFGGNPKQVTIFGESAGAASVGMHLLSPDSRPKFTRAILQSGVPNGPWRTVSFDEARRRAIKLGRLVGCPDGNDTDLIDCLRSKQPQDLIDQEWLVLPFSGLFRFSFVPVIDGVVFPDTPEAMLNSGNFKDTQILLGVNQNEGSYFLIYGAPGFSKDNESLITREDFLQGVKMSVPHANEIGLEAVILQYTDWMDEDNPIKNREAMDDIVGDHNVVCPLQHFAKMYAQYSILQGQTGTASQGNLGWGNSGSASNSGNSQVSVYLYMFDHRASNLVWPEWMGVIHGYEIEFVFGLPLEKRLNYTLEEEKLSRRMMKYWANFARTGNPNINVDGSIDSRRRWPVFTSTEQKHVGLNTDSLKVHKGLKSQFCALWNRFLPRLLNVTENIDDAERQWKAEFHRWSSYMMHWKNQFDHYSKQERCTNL

CNC(=O)Oc1ccc2c(c1)[C@]1(C)CCN(C)[C@@H]1N2C [Eserine, reference compound]
k2 (± S.E.) [1]: 8.8 ± 1.0 | k3 × 10^2 (± S.E.) [1]: 5.4 ± 0.2 | ki × 10^-5 (± S.E.) [1]: 26.6 ± 0.8 | effect on spontaneous locomotor activity (analogous to depressing effect of heptyl derivative) (male Swiss mice [2]; doses between 0.1 and 0.3 mg/kg): An analogous effect | AChE inhibition, brain (M ± SE) ([3]; 0.15 mg/kg i.p.): 39.18 ± 4.32% | % AChE Inhibition, brain, 60 minutes (M ± SE) [3, 10]: 12.47 ± 2.83% | % AChE Inhibition, brain, 120 minutes (M ± SE) [3, 10]: 3.28 ± 1.99% | effect on coloration of cerebral tissues (AchE inhibition) ([4]; 0.4 and 0.5 mg/kg): no evident effect | LD50 at 2 h [5]: 0.6 mg/kg

CCNC(=O)Oc1ccc2c(c1)[C@]1(C)CCN(C)[C@@H]1N2C [Ethyl-]
ki × 10^-5 (± S.E.) [1, 11]: 2.3 ± 0.1 | k2 (± S.E.) [1, 12]: 3.5 ± 1.1 | k3 × 10^2 (± S.E.) [1, 13]: 2.5 ± 0.3 | IC50 [6]: 1 µM | Ki [6]: 0.13 µM

CCCCCCCCCCCNC(=O)Oc1ccc2c(c1)[C@]1(C)CCN(C)[C@@H]1N2C [Undecyl-, trimethyl-1,3a,8-hexahydro-1,2,3,3a,8,8a-pyrrol[2,3-b]indole-5(3aS, 8aR) undecylcarbamate]
ki × 10^-5 (± S.E.) [1, 11]: 0.8 ± 0.1 | IC50 [6]: 2.9 µM

CCN(CC)C(=O)Oc1ccc2c(c1)[C@]1(C)CCN(C)[C@@H]1N2C [diethyl derivative, Pyrrolo [2,3-b]indol-5-ol,3,3a,8,8a-hexahydrol,3a,8-trimethyl-diethylcarbamate (ester), (3aS-cis)]
ki × 10^-5 (± S.E.) [1, 11]: 0.004 | IC50 [6]: 680 µM | LD50 at 2 h [5]: 38 mg/kg

CN(C)C(=O)Oc1ccc2c(c1)[C@]1(C)CCN(C)[C@@H]1N2C [dimethyl derivative, Pyrrolo [2,3-b]indol-5-ol,3,3a,8,8a-hexahydro-1,3a,8-trimethyl-dimethylcarbamate (ester),(3aS-cis)]
ki × 10^-5 (± S.E.) [1, 11]: 0.2 ± 0.05 | k2 (± S.E.) [1, 12]: 8.8 ± 3.3 | k3 × 10^2 (± S.E.) [1, 13]: 8.5 ± 1.2 | IC50 [6]: 3.1 µM | Ki [6]: 0.348 µM | LD50 at 2 h [5]: 9 mg/kg

CCCCCCCNC(=O)Oc1ccc2c(c1)[C@]1(C)CCN(C)[C@@H]1N2C [heptyl derivative, trimethyl-1,3a,8-hexahydro-1,2,3,3a,8,8a-pyrrol[2,3-b]indole-5(3aS, 8aR) heptylcarbamate]
ki × 10^-5 (± S.E.) [1, 11]: 2.8 ± 0.1 | k2 (± S.E.) [1, 12]: 7.2 ± 3.6 | k3 × 10^2 (± S.E.) [1, 13]: 0.71 ± 0.08 | reduction in locomotor activity compared with the controls (male Swiss mice [2]; 5 mg/kg): 25% | influence on spontaneous locomotor activity (male Swiss mice [2]; between 0.1 mg/kg and 3 mg/kg): does not influence spontaneous activity | effect on spontaneous locomotor activity (male Swiss mice [2]; doses higher than 3 mg/kg): a depressing effect is observed | IC50 [6]: 1 µM | Ki [6]: 0.053 µM | AChE inhibition, brain (M ± SE) ([3]; 0.50 mg/kg i.p.): 25.55 ± 11.64% | AChE inhibition, serum (M ± SE) ([3]; 0.50 mg/kg i.p.): 20.85 ± 5.64% | AChE inhibition, brain (M ± SE) ([3]; 1.00 mg/kg i.p.): 50.00 ± 1.32% | AChE inhibition, serum (M ± SE) ([3]; 1.00 mg/kg i.p.): 59.40 ± 1.99% | AChE inhibition, brain (M ± SE) ([3]; 2.00 mg/kg i.p.): 53.62 ± 10.51% | AChE inhibition, serum (M ± SE) ([3]; 2.00 mg/kg i.p.): 67.42 ± 4.29% | AChE inhibition, brain (M ± SE) ([3]; 4.00 mg/kg i.p.): 72.35 ± 5.92% | AChE inhibition, serum (M ± SE) ([3]; 4.00 mg/kg i.p.): 79.42 ± 2.89% | % AChE Inhibition, brain, 10 minutes (M ± SE) [3, 10]: 50.00 ± 1.32% | % AChE Inhibition, brain, 60 minutes (M ± SE) [3, 10]: 28.46 ± 9.56% | % AChE Inhibition, brain, 120 minutes (M ± SE) [3, 10]: 22.45± 2.54% | % AChE Inhibition, serum, 10 minutes (M ± SE) [3, 10]: 59.40 ± 1.99% | % AChE Inhibition, serum, 60 minutes (M ± SE) [3, 10]: 41.15 ± 4.29% | % AChE Inhibition, serum, 120 minutes (M ± SE) [3, 10]: 21.53 ± 2.31% | effect on coloration of cerebral tissues (AchE inhibition) ([4]; 20 mg/kg, injected 15 minutes before sacrifice): evident diminution in the coloration of the cerebral tissues | duration of effect on coloration of cerebral tissues ([4]; 30 mg/kg): remained for more than one hour | effect on coloration of cerebral tissues (AchE inhibition) ([4]; 30 mg/kg, compared with 20 mg/kg): even more marked | LD50 at 2 h [5]: 35 mg/kg | lethal dose 100 (LD100) (male Swiss mice [7]; injection): 45 mg/kg | lethal dose 50 compared with physostigmine (male Swiss mice [7]; ratio to LD50 of physostigmine): about 60 times greater | antagonism of scopolamine-induced stimulation (male Swiss mice [8]; 3 mg/kg against scopolamine 1 mg/kg): restored the activity to the control values | effect of the dose per se (male Swiss mice [8]; 3 mg/kg alone): ineffective | electrocorticographic amplitude [9]: an increase in its amplitude | electrocorticographic rate [9]: a slowing down of the electrocorticographic rate

CCCNC(=O)Oc1ccc2c(c1)[C@]1(C)CCN(C)[C@@H]1N2C [n.Propyl-, trimethyl-1,3a,8-hexahydro-1,2,3a,8,8a-pyrrol[2,3-b]indole-5(3aS, 8aR) propylcarbamate]
ki × 10^-5 (± S.E.) [1, 11]: 0.9 ± 0.1 | IC50 [6]: 2.5 µM

CCCCNC(=O)Oc1ccc2c(c1)[C@]1(C)CCN(C)[C@@H]1N2C [n.butyl derivative]
ki × 10^-5 (± S.E.) [1, 11]: 2.0 ± 0.1 | k2 (± S.E.) [1, 12]: 6.7 ± 3.5 | k3 × 10^2 (± S.E.) [1, 13]: 0.45 ± 0.14 | IC50 [6]: 3.5 µM | Ki [6]: 0.026 µM | LD50 at 2 h [5]: 6 mg/kg

CCCCCCCCCNC(=O)Oc1ccc2c(c1)[C@]1(C)CCN(C)[C@@H]1N2C [n.nonyl derivative]
ki × 10^-5 (± S.E.) [1, 11]: 1.5 ± 0.1 | IC50 [6]: 1.5 µM | LD50 at 2 h [5]: 50 mg/kg

CN1[C@@H]2C[C@@H](OC(=O)[C@H](CO)c3ccccc3)C[C@H]1[C@@H]1O[C@@H]12 [scopolamine, reference compound]
increase in basic locomotor activity (male Swiss mice [8]; scopolamine 1 mg/kg): 100%
